This is an account of results in US9862754B2, “Peptide analogs for treating diseases and disorders” (KeyBioscience AG, priority 2011, dated 2018).

Common to all, as to format: in vivo, rat
Assay [1] can be described thus: Example 2: short-term oral treatment, body weight and food intake in DIO rats. Conditions: for food intake: 0.5, 1 and 2 mg/kg p.o. b.i.d. for 3 days; for body weight: 0.5, 1 and 2 mg/kg p.o. b.i.d. for 3 days with 150 mg/kg 5-CNAC. The method, then:
(§1) The study was performed in male Levin-DIO rats (diet-sensitive) and Levin-DR (diet-resistant) (TacLevin: CD (SD) DIO) (Taconic, Hudson, N.Y., U.S.A.) obtained at age 6-7 weeks. On arrival, DIO rats were given high fat diet (60 kcal %) (#D12495, Research Diets Inc., New Brunswick, N.J., USA) and kept on the same diet for 12 weeks prior to and during the experiment. DR rats were given low-fat diet and served as control group. Animals were pair-wise housed throughout the study. Rats were handled and pre-dosed once daily with MilliQ H2O for 2-3 weeks prior to experimental start to reduce stress-induced hyperglycaemia. On the day prior to study start animals were given a single dose of vehicle. Baseline parameters were recorded in an overnight fasting (16 h) condition. Rats were randomized into treatment groups based on fasting body weight (BW) and fasting plasma glucose (FPG). Body weight, food and water intake were recorded prior to and at study end.
Animals treated with oral sCT or oral calcitonin mimetic 1 received doses of 0.5 mg/kg, 1.0 mg/kg or 2.0 mg/kg combined with 150 mg/kg 5-CNAC—all dissolved in milliQ H20.
(§2) Drug administration were given by per oral (p.o.) gavage b.i.d. during the study period and as single dose in the morning prior to start of OGTT.
Following the initial (1st) OGTT, animals are randomized into treatment groups based on FBG and BW. Animals will be pre-treated 3 days (b.i.d.) prior to 2nd OGTT. Dosing will be performed in the morning (7-8 am) and afternoon (3-4 pm).
The study was performed in an x-over design with each animal being its own control.
Three different doses of oral sCT/calcitonin mimetic 1 containing 0.5, 1 and 2 mg/kg compound were applied by gavage twice daily to 4 groups of rats for 3 days. * P<0.05, ** P<0.01 vs oral sCT.

Assay [2] in a line: Example 3: short-term oral treatment, body weight and food intake in DIO rats. The method, then:
as §1, with “hyperglycemia.” for “hyperglycaemia.”
Animals treated with oral sCT or oral UGP284/UGP298/UGP302 received doses of 0.5 mg/kg, 1.0 mg/kg or 2.0 mg/kg combined with 150 mg/kg 5-CNAC—all dissolved in milliQ H2O.
as §2
Following the initial (1st) OGTT, animals were randomized into treatment groups based on FBG and BW. Animals were pre-treated 3 days (b.i.d.) prior to 2nd OGTT. The study was performed in an x-over design with each animal being its own control.
(§3) Statistical analysis was performed by one-way ANOVA followed by the Dunnett's post hoc test for multiple comparison. Student's t-test was performed to compare two paired group. All analysis was performed using GRAPHPAD PRISM software (GraphPad Prism, San Diego, Calif. U.S.A). Incremental area under curve (iAUC) during OGTT was calculated by the trapezoidal method. A value of P<0.05 was considered to be significant. All data are presented as mean±standard error of the mean (SEM).
FIG. 9A, FIG. 9B, FIG. 9C, FIG. 9D, FIG. 9E, and FIG. 9F show the effect of three different doses of oral sCT/UGP284/UGP298/UGP302 containing 0.5, 1 and 2 mg/kg compound were applied by gavage twice daily to 4 groups of rats for 3 days. * P<0.05, ** P<0.01 vs oral sCT. Results are presented as means±SEM.

Assay [3] can be described thus: Example 1: fasting glycaemia in DIO rats. Conditions: following 2 and 4 weeks of treatment, 1 mg/kg p.o. b.i.d. As for the experimental part:
as §1, with “for 16” for “for 12”, “hyperglycaemia.” for “hyperglycaemia. On the day prior to study start animals were given a single dose of vehicle.”, “an” for “an overnight”, “fasting (6” for “fasting (16”, “recorded once weekly during the” for “recorded prior to and at”, “study period.” for “study end.”
Blood sampling and glycemia were measured by heated tail venous puncture.
Whole blood glucose levels were determined with an ACCU-CHEK® Avia blood glucose meter (Roche Diagnostics, Rotkreuz, Switzerland). Blood (approx 300 ul) is collected in 1 ml MiniCollect K3EDTA plasma-tube (Greiner-Bio-One GmbH, Frickenhausen, Germany), inverted, and stored on ice. Tubes are centrifuged 3000×g (5000 rpm in table centrifuge) for 10 min at 4° C. and plasma obtained. Plasma samples are stored at −20° C. until analysis. […]

A short description of assay [4]: Example 1: chronic oral treatment, body weight and food intake in DIO rats. Conditions: for body weight: 4 weeks, vs oral vehicle (mimetic also vs oral sCT); for body weight / cumulative food intake: study end; for body weight / food intake: 1 mg/kg p.o. b.i.d. with 150 mg/kg 5-CNAC; for food intake: first week of treatment; for food intake / cumulative food intake: vs oral vehicle; for cumulative food intake: four weeks of treatment, 1 mg/kg p.o. b.i.d. As for the experimental part:
as §1, with “for 16” for “for 12”, “hyperglycaemia.” for “hyperglycaemia. On the day prior to study start animals were given a single dose of vehicle.”, “an” for “an overnight”, “fasting (6” for “fasting (16”, “recorded once weekly during the” for “recorded prior to and at”, “study period.” for “study end.”
Oral sCT or calcitonin mimetic 1 solution was prepared on the day of dosing by mixing a carrier with the given compound based on the following calculations:
Animals treated with oral sCT or oral calcitonin mimetic 1 received doses of 1.0 mg/kg combined with 150 mg/kg 5-CNAC—all dissolved in milliQ H20.
Drug administration by per oral (p.o.) gavage b.i.d. (7-8 am and 3-4 pm) during the study period and as single dose in the morning prior to start of OGTT.
as §3
One dose of oral sCT/calcitonin mimetic 1 containing 1 mg/kg compound was applied by gavage twice daily to four groups of rats for 4 weeks. An oral vehicle group served as dosing regimen control, respectively. * P<0.05, ** P<0.01, *** P<0.001 vs Vehicle. Results are presented as means±SEM.

Bridge positions count the residues as written; N and C are the ends. Ends that are not written are not given here.

“Ac-CSNLSTCVLGKLSQELHKLQTYPRTDVGANAP-NH2 (Ac-CSNLSTCVLGKLSQELHKLQTYPRTDVGANAP-NH2; ends and bridges not checked) [UGP302, calcitonin mimetic]”: the “reduction in body weight vs oral sCT at same dose” value in assay [1] (0.5 mg/kg p.o. b.i.d. for 3 days) is “significantly difference to oral sCT 0.5 mg/kg”. Also, in assay [1], the food intake entry is “trended dose-dependently reduced compared to oral sCT” and the body weight entry was “dose-dependent superiority to oral sCT”. Besides, in assay [2] (0.5 mg/kg p.o. b.i.d. for 3 days, DIO rats), the “reduction in body weight vs oral sCT at same dose” value is given as “significantly difference to oral sCT 0.5 mg/kg”. Besides, the “energy balance vs equivalent doses of oral sCT” value in assay [2] (0.5, 1 and 2 mg/kg doses p.o., male DIO rats) is listed as “superiority to equivalent doses of oral sCT”. Besides, the fasting glycaemia entry in assay [3] was “trend towards superiority in fasting glycaemia”. Further, in assay [4], the body weight entry is “more pronounced significant reduction in body weight”, the food intake entry is on record as “significantly reduced food intake” and the cumulative food intake entry is on record as “significantly reduced”.
Regarding “salmon calcitonin (CSNLSTCVLGKLSQELHKLQTYPRTNTGSGTP-NH2; disulfide 1-7; ends not checked) [sCT, reference compound]”, the food intake entry in assay [1] is reported as “dose-dependently decreased”; in assay [2] (0.5, 1 and 2 mg/kg p.o. b.i.d. for 3 days, DIO rats) it was “dose-dependently decreased”; in assay [4], “significantly reduced food intake”. In addition, the body weight entry in assay [1] was “dose-dependently decreased”; in assay [2] (0.5, 1 and 2 mg/kg p.o. b.i.d. for 3 days with 150 mg/kg 5-CNAC, DIO rats), “dose-dependently decreased”; in assay [4] it was “significantly reduced body weight from baseline”. In addition, the fasting glycaemia result in assay [3] is “not significantly different from oral vehicle”. In addition, the cumulative food intake entry in assay [4] was “lack of difference”.
